Measurements: publication PMC12673918, “Design, Synthesis, and Selective Antiproliferative Activity of Indolizine Derivatives as Microtubule Destabilizers” (Archiv Der Pharmazie, 2025)
Like-named read-outs stand apart in the source and are kept apart here.

Assays:
Type in all cases: cell-based
[1] = system: CAL‐27 (oral carcinoma); experiment: Resazurin cell viability assay, CAL‐27; details: Homo sapiens, CAL-27; for inhibition at 50 µM: read-out: % Cellular growth inhibition (at 50 µM) CAL‐27
Outline: (§1)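 Cells in DMEM/10% FBS, 1 × 10^3 per well, adhered overnight, then treated with compounds (0–50 µM) for 72 h. Viability read as fluorescence (ex 530, em 590 nm) after 4 h with 44 µM resazurin. % growth inhibition at 50 µM and IC50 by nonlinear regression, triplicates.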

[2] = system: BT‐20 (breast carcinoma); experiment: Resazurin cell viability assay, BT‐20; details: Homo sapiens, BT-20; for inhibition at 50 µM: read-out: % Cellular growth inhibition (at 50 µM) BT‐20
Outline: as §1

[3] = target: T1, human P2X4 receptor (Homo sapiens, UniProt Q99571); experiment: Ca2+‐flux assay for the hP2X4 receptor; details: read-out: % Inhibition of P2X4R at 10 µM compounds’ concentration
T1 construct: expressed in transfected cells; host or cells: human 1321N1 astrocytoma cells
T1 sequence (Q99571 1-388): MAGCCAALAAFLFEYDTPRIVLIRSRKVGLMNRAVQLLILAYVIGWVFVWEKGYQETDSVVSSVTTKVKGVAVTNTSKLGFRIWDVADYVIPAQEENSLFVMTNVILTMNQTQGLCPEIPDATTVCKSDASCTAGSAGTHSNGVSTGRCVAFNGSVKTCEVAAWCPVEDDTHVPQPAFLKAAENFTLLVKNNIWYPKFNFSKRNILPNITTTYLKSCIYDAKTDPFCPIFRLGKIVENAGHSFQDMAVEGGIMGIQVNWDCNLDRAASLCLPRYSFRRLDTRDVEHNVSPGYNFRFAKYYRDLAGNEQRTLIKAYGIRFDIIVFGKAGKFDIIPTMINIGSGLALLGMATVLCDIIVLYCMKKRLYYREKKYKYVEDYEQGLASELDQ
Experimental: Human 1321N1 astrocytoma cells stably expressing the human P2X4 receptor (generated in‐house) were cultured in Dulbecco's Modified Eagle Medium supplemented with 9% (v/v) FCS, 1% (v/v) Penicillin/Streptomycin (10000 I.U./mL, 10 mg/mL in 0.9% NaCl) and puromycin (1 µg/mL) as a selection antibiotic at 37°C and 5% CO2. Cells were subcultured in cell culture 75 cm^2 flasks and split every 2–4 days (1:5; 1:6) once confluent.
1321N1 cells stably expressing human P2X4 receptor were seeded into black‐walled 96‐well plates (Thermo Fisher Scientific) at 2.5 × 10^4 cells/well and incubated at 37°C for 24–48 h. All test compounds were diluted in assay buffer solution (SBS: 135 mM NaCl; 5 mM KCl; 1 mM MgCl2.6 H2O; 1.8 mM CaCl2; 5.6 mM D‐Glucose; 10 mM HEPES, 0.1% (m/v) BSA, 0.05% (m/v) gelatine, 2.3 mM probenecid). The culture medium was removed, and 100 µL of 4 μM fluorescent Ca^2+ indicator Calbryte520AM in SBS was added and incubated at 37°C for 1 h. The dye solution was then removed, 100 µL of SBS solution and 50 µL of antagonist dilutions (10^–5–10^–9 M) in SBS were added, and the cells were incubated at room temperature for an extra 30 min. Finally, 50 µL of ATP (at a concentration of the previously determined EC50‐ value) was added by using FlexStation 3 Multi‐Mode Microplate Reader (Molecular Devices, San Jose, CA, USA, Software SoftMax7 Pro). The changes in intracellular Ca^2+ ion concentrations were monitored over 200 s (20 s baseline) by measuring the fluorescence signal at λ ex = 494 nm and λ em = 516 nm ([…] cut‐off). The concentration‐dependent decrease in Ca^2+‐flux, expressed as RFU, was plotted against the concentrations of the compounds.

[4] = 72 h, mean ± SD, n = 3, read-out: IC50 (nM) CAL‐27
[5] = 72 hours, triplicate, read-out: IC50 (nM, Cellular growth inhibition) CAL-27 (supplement)
[6] = 72 h, mean ± SD, n = 3, read-out: IC50 (nM) BT‐20
[7] = 72 hours, triplicate, read-out: IC50 (nM, Cellular growth inhibition) BT-20 (supplement)

SMILES	inhibition at 50 µM ([1]; 72 h, mean ± SD, n = 3) [%]	IC50 [1, 4] [nM]	IC50 [1, 5] [nM]	inhibition at 50 µM ([2]; 72 h, mean ± SD, n = 3) [%]	IC50 [2, 6] [nM]	IC50 [2, 7] [nM]	inhibition at 10 µM [3] [%]
COc1ccc2c(C(=O)c3ccc(Cl)c(Cl)c3)ccn2c1 [Compound 7e, (6‐methoxyindolizin‐1‐yl)(3,4‐dichlorophenyl)methanone]	70 ± 3.8	12400	11900	53 ± 1.8	14100	12400	-3
COc1ccc2c(C(=O)c3cc(OC)c(OC)c(OC)c3)c(C)cn2c1 [Compound 8a, (6‐methoxy‐2‐methylindolizin‐1‐yl)(3,4,5‐trimethoxyphenyl)methanone]	64 ± 2.7	325 ± 92	410 ± 212	52 ± 5	370 ± 28	325 ± 92	5
COc1ccc2c(C(=O)c3cc(OC)c(OC)c(OC)c3)c(C(C)(C)C)cn2c1 [Compound 8b, [2‐(Tert‐Butyl)‐6‐Methoxyindolizin‐1‐yl](3,4,5‐Trimethoxyphenyl)Methanone]	84 ± 3.2	–	–	62 ± 0.5	–	–	-6
COc1ccc2c(C(=O)c3cc(OC)c(OC)c(OC)c3)c(C(F)(F)F)cn2c1 [Compound 8e, [6‐methoxy‐2‐(trifluoromethyl)indolizin‐1‐yl](3,4,5‐trimethoxyphenyl)methanone]	76 ± 1.3	75 ± 21	117 ± 32	62 ± 2.3	105 ± 49	75 ± 21	-9
CCCc1cn2cc(OC)ccc2c1C(=O)c1cc(OC)c(OC)c(OC)c1 [Compound 8h, (6‐methoxy‐2‐propylindolizin‐1‐yl)(3,4,5‐trimethoxyphenyl)methanone]	90 ± 1.8	47 ± 18	75 ± 35	71 ± 2.8	90 ± 56	47 ± 18	6
COc1ccc2c(C(=O)c3cc(OC)c(OC)c(OC)c3)c(-c3ccc(C)cc3)cn2c1 [Compound 8j, [6‐methoxy‐2‐(p ‐tolyl)indolizin‐1‐yl](3,4,5‐trimethoxyphenyl)methanone]	73 ± 4	300 ± 85	465 ± 35	61 ± 2	465 ± 35	300 ± 85	0
COc1ccc(-c2cn3cc(OC)ccc3c2C(=O)c2cc(OC)c(OC)c(OC)c2)cc1 [Compound 8k, [6‐methoxy‐2‐(4‐methoxyphenyl)indolizin‐1‐yl](3,4,5‐trimethoxyphenyl)methanone]	73 ± 4.5	690 ± 156	880 ± 14	64 ± 1.5	800 ± 127	690 ± 156	7
